# “And” between values parts separate entries of the source, which are not always exact repeats. Equal values may be shown once. Where a name gives a salt, the structure may show the parent alone.
# How the values were obtained:
# Type in all cases: in vivo
# [1] = tested on: TGF-β; assay: Bleomycin-induced lung fibrosis mouse model: immunohistochemical localization of TGF-β
# Experimental: (§1) Bleomycin-induced Lung Fibrosis Mouse Model
# (§2) Thirty male CD-1 mice weighing 27.5±0.4 g were used in this study (obtained from Harlan Nossan, Milan, Italy), and were allowed access to food and water ad libitum. The mice were kept in laminar flow rooms at constant temperature and humidity with 3 animals in each cage. The temperature of the room was controlled between 20-26° C. and the humidity of the room was controlled between 40-70%.
# (§3) Mice received a single intra-tracheal instillation of saline (0.9%), or saline containing bleomycin sulfate (BLM, 0.1 IU per mouse) in a volume of 100 μl. Mice were then sacrificed after 7 days by pentobarbitone overdose. […]
# (§4) At 7 days after BLM administration, lung tissues were fixed in 10% PBS-buffered formaldehyde and 7 μm sections were prepared from paraffin-embedded tissues. […] Specific labeling was detected with a biotin-conjugated goat anti-rabbit IgG and avidin-biotin peroxidase complex (DBA). […]
# [2] = tested on: Poly-ADP-ribose (PAR); assay: Bleomycin-induced lung fibrosis mouse model: immunohistochemical localization of PAR
# Experimental: as §1, §2, §3, §4
# [3] = tested on: bleomycin-induced lung fibrosis; assay: Bleomycin-induced lung fibrosis mouse model: overall outcome
# Text: as §1
# (§5) Pulmonary fibrosis is a common response to various insults to the lung and is the end-point of a numerous and heterogenous group of disorders known as interstitial lung disease (ILD), characterized by chronic inflammation and progressive fibrosis of the pulmonary interstitium. […] instillation of the anti-tumour agent bleomycin (BLM) is the most commonly used animal model for pulmonary fibrosis.
# as §2
# (§6) Mice received a single intra-tracheal instillation of saline (0.9%), or saline containing bleomycin sulfate (BLM, 0.1 IU per mouse) in a volume of 100 μl. Mice were then sacrificed after 7 days by pentobarbitone overdose.
# (§7) Animals were randomized into three experimental groups of 10 animals in each group, and were treated with either hydroxypropyl methyl cellulose (HPMC) (0.5%)/HPbetaCyclodextrin (20%) as a 5 ml/kg s.c. injection 30 min after intra-tracheal instillation of BLM and every 12 h thereafter until completion of the study, or with the compound I-4×HCl (4-[(4-Methoxyphenyl)amino]-6-(methylcarbamoyl)quinoline-3-carboxylic acid hydrochloride) at 30 mg/kg as a s.c. injection 30 min after intra-tracheal instillation of BLM and every 12 h thereafter until completion of the study.
# The levels of various fibrotic markers were measured in the three groups (A, B and C). For each marker, the level measured in the bleomycin-injured, vehicle-treated group (BLM+Vehicle) was taken as 100%. In Table 3, the corresponding marker levels for the “sham injured” group treated with vehicle (Sham+Vehicle), and the bleomycin-injured group treated with compound I-4 (BLM+I-4×HCl), are indicated as a percentage of the level in the BLM+Vehicle group.
# [4] = tested on: Nitrotyrosine; assay: Bleomycin-induced lung fibrosis mouse model: immunohistochemical localization of nitrotyrosine
# Experimental: as §1, §2, §3, §4
# [5] = tested on: iNOS; assay: Bleomycin-induced lung fibrosis mouse model: immunohistochemical localization of iNOS
# Experimental: as §1, §2, §3, §4
# [6] = tested on: COX-2; assay: Bleomycin-induced lung fibrosis mouse model: immunohistochemical localization of COX-2
# Experimental: as §1, §2, §3, §4
# [7] = tested on: bleomycin-induced lung fibrosis; assay: Bleomycin-induced lung fibrosis mouse model: histological examination, scoring for lung fibrosis; set-up: key to Histological fibrosis score / Histological fibrosis score, Mean: 0 = normal lung, 8 = total fibrous obliteration of fields
# Text: as §1, §5, §2, §6, §7
# Lung biopsies were taken 7 days after BLM injection. After fixation at room temperature in buffered formaldehyde solution (10% in phosphate buffered saline [PBS]), the sections were prepared and stained by haematoxylin-eosin and observed with an Axiovision Zeiss microscope (Milan, Italy).
# Scoring for lung fibrosis was graded on a scale from 0 to 8 by examining randomly chosen sections, with 5 fields per sample at a magnification of ×100. Criteria for grading lung fibrosis were as follows: grade 0, normal lung; grade 1, minimal fibrous thickening of alveolar or bronchiolar walls; grade 3, moderate thickening of walls without obvious damage to lung architecture; grade 5, increased fibrosis with definite damage to lung structure and formation of fibrous bands or small fibrous masses; grade 7, severe distortion of structure and large fibrous areas; and grade 8, total fibrous obliteration of fields (Cuzzocrea S, et al. Am J Physiol Lung Cell Mol Physiol. (2007) 292:L1095-104).
# All data in the text are presented as mean±s.e. mean of n observations, where n represents the number of animals studied. All statistical analysis was calculated using GraphPad Prism 5 (GraphPad Software, San Diego, Calif., USA). Data without repeated measurements were assessed by a Mann-Whitney U t-test. Data with repeated measurements were assessed by a two-way ANOVA followed by a Bonferroni post-hoc test. A P-value of less than 0.05 was considered to be statistically significant.
# [8] = tested on: Myeloperoxidase (MPO); assay: Bleomycin-induced lung fibrosis mouse model: myeloperoxidase (MPO) assay in lung; conditions: percentage of the level in the BLM+Vehicle group (100%); 30 mg/kg s.c. every 12 h; 7 days after BLM
# Experimental: as §1, §2, §3
# Myeloperoxidase (MPO) activity was determined 7 days after BLM injection. […] The rate of change in absorbance was measured spectrophotometrically at 650 nm. MPO activity was defined as the quantity of enzyme degrading 1 μmol of peroxide per min at 37° C. and was expressed in units per gram weight of wet tissue.
# [9] = tested on: IL-1β; assay: Bleomycin-induced lung fibrosis mouse model: measurement of cytokines, IL-1β; conditions: percentage of the level in the BLM+Vehicle group (100%); 30 mg/kg s.c. every 12 h; 7 days after BLM
# Experimental: as §1, §2, §6, §7
# (§8) TNF-α and IL-1β levels were evaluated from lung tissues collected at 7 days after BLM administration. […]
# [10] = Bleomycin-induced lung fibrosis mouse model: observations, body weight; conditions: 30 mg/kg 30 min after intra-tracheal BLM and every 12 h thereafter
# Experimental: as §1, §2, §3
# At the time of routine monitoring, the animals were checked for any effects of acute lung injury and treatments on normal behavior such as mobility, food and water consumption (by looking only), body weight gain/loss (body weights were measured daily), eye/hair matting and any other abnormal effect. Death and observed clinical signs were recorded on the basis of the numbers of animals within each subset.
# [11] = tested on: TNF-α; assay: Bleomycin-induced lung fibrosis mouse model: measurement of cytokines, TNF-α; conditions: percentage of the level in the BLM+Vehicle group (100%); 30 mg/kg s.c. every 12 h; 7 days after BLM
# Experimental: as §1, §2, §6, §7, §8
# [12] = tested on: lung oedema; assay: Bleomycin-induced lung fibrosis mouse model: measurement of lung oedema
# Experimental: as §1, §2, §3
# The wet lung weight was measured 7 days after BLM injection by careful excision of the lung from other adjacent extraneous tissues. The lung was then exposed for 48 h to 180° C. and the dry weight measured. Water content was then calculated by subtracting the dry weight from the wet weight.
# [13] = tested on: Thiobarbituric acid-reactant substances (TBARS); assay: Bleomycin-induced lung fibrosis mouse model: thiobarbituric acid-reactant substances in lung; conditions: percentage of the level in the BLM+Vehicle group (100%); 30 mg/kg s.c. every 12 h; 7 days after BLM
# Experimental: as §1, §2, §3
# Thiobarbituric acid-reactant substances (TBARS) measurement, which is considered a good indicator of lipid peroxidation, was determined in the lung tissues collected at 7 days after BLM administration. […] The absorbance of the supernatant was measured spectrophotometrically at […]. Levels of TBARS are expressed as μM/100 mg of wet tissue.
# [14] = BLM-injured mice treated with compound, compared with sham group
# [15] = percentage of the level in the BLM+Vehicle group (100%), 30 mg/kg s.c. every 12 h, 7 days after BLM
# [16] = 30 mg/kg 30 min after intra-tracheal BLM and every 12 h thereafter
smiles,measurement,setting,value
"CNC(=O)c1ccc2ncc(C(=O)O)c(Nc3ccc(OC)cc3)c2c1 [Compound I-4, 4-[(4-Methoxyphenyl)amino]-6-(methylcarbamoyl)quinoline-3-carboxylic acid]",TGF-β level versus sham group (in words),[1]; [14],reduced to levels similar to those of the sham group
same,poly-ADP-ribose (PAR) level versus sham group (in words),[2]; [14],reduced to levels similar to those of the sham group
same,levels of the markers induced by bleomycin (in words),"[3]; all markers of Table 3, versus BLM+Vehicle",statistically significantly reduced
same,overall effect in the bleomycin model (in words),[3]; conclusion from Tables 2 and 3,potent anti-fibrotic and ant-inflammatory effect
same,Nitrotyrosine level versus sham group (in words),[4]; [14],reduced to levels similar to those of the sham group
same,iNOS level versus sham group (in words),[5]; [14],reduced to levels similar to those of the sham group
same,COX-2 level versus sham group (in words),[6]; [14],reduced to levels similar to those of the sham group
"CNC(=O)c1ccc2ncc(C(=O)O)c(Nc3ccc(OC)cc3)c2c1 [I-4 × HCl, 4-[(4-Methoxyphenyl)amino]-6-(methylcarbamoyl)quinoline-3-carboxylic acid hydrochloride]",TGF-β (immunohistochemical localization),[1]; [15],0.1%
same,Poly-ADP-ribose (PAR) (immunohistochemical localization),[2]; [15],0.1%
same,acute lung injury (in words),[7]; [16],significant attenuation
same,histological scoring of fibrosis (in words),[7]; [16],significant attenuation
same,"Histological fibrosis score, Mean","[7]; group mean of 10 mice, BLM-injured CD-1 mice, 30 mg/kg s.c. 30 min after BLM and every 12 h, 7 days after BLM, scale from 0 to 8",2.40
same,Histological fibrosis score,"[7]; individual mice 1-10, BLM-injured CD-1 mice, 30 mg/kg s.c. 30 min after BLM and every 12 h, 7 days after BLM, scale from 0 to 8, hydrochloride, 30 mg/kg",2.0 (4×) and 3.0 (5×) and 1.0
same,Histological score for lung acute injury,[7]; [15],33%
same,Lung myeloperoxidase (MPO),[8],47%
same,lung inflammation (in words),[3]; [16],significant attenuation
same,Nitrotyrosine (immunohistochemical localization),[4]; [15],0.1%
same,Lung IL-1β levels,[9],50%
same,weight loss (in words),[10],significant attenuation
same,Lung TNF-α levels,[11],45%
same,lung oedema (in words),[12]; [16],significant attenuation
same,Wet/dry weight ratio (oedema),[12]; [15],52%
same,iNOS (immunohistochemical localization),[5]; [15],0.1%
same,COX-2 (immunohistochemical localization),[6]; [15],0.1%
same,Lung TBARS levels,[13],45%
